# From ChEMBL document CHEMBL5291721, “A preclinical secondary pharmacology resource illuminates target-adverse drug reaction associations of marketed drugs” (Nat Commun, 2023)
# Values joined by “and” are separate entries in the source; they are usually repeats but may differ in a detail not shown here. Equal entries are not always repeated.
# Tests used:
# [1] = target: Gamma-aminobutyric acid receptor subunit alpha-1 (Rattus norvegicus, UniProt P62813)
# [2] = target: Beta-2 adrenergic receptor (Homo sapiens, UniProt P07550); format: functional, cell-based
# Chain of Beta-2 adrenergic receptor (P07550 whole entry): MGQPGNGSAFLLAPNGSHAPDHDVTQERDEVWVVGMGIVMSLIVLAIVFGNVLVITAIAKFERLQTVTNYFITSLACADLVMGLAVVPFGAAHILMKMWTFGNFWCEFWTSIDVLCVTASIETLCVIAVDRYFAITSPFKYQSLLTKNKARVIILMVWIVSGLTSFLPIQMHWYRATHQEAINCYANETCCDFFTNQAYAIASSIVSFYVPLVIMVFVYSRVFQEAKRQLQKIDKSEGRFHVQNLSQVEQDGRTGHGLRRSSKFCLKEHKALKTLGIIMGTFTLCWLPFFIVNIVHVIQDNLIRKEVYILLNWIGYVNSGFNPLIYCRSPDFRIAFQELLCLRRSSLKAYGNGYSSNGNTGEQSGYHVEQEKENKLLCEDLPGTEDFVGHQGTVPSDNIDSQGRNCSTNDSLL
# [3] = target: T1, Alpha-2A adrenergic receptor (Homo sapiens, UniProt P08913); format: functional, cell-based
# T1 sequence (P08913 whole entry): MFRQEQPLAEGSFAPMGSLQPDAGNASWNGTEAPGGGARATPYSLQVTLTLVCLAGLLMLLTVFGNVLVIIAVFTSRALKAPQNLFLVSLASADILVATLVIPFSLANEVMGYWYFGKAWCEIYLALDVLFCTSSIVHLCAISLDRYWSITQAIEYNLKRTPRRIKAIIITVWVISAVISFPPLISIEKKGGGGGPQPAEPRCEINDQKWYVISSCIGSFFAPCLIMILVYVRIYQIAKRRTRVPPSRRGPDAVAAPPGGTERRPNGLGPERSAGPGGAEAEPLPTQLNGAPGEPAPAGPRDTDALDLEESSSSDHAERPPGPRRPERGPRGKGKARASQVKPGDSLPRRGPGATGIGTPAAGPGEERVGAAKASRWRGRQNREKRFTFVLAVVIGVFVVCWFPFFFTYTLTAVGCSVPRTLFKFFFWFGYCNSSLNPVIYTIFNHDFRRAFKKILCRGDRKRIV
# Androgen receptor = target: T2, Androgen receptor (Rattus norvegicus, UniProt P15207); format: functional
# T2 sequence (P15207 whole entry): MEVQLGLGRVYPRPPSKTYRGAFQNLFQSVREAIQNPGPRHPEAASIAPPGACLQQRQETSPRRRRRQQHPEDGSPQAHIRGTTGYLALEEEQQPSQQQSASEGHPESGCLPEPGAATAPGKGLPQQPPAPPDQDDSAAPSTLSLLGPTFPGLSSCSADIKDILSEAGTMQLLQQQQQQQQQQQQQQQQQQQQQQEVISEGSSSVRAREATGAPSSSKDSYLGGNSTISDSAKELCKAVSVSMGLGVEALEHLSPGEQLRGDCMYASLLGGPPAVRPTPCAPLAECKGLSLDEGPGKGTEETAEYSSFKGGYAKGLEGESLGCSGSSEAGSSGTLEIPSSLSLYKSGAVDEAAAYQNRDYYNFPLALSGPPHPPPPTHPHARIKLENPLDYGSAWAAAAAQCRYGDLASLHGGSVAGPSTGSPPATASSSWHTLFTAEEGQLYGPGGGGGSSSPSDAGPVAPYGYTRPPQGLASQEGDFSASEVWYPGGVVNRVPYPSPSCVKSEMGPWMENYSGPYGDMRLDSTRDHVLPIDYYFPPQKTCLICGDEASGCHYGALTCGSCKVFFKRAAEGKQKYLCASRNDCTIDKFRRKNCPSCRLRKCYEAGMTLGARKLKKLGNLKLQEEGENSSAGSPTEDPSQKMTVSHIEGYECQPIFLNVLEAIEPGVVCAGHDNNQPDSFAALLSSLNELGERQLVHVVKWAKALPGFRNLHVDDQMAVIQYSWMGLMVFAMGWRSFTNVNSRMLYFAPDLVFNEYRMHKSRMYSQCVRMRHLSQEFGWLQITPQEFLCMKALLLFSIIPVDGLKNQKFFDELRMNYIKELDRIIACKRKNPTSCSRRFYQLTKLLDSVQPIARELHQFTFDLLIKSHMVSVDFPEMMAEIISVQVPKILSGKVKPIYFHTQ
# D(3) dopamine receptor = D(3) dopamine receptor (Homo sapiens, UniProt P35462)
# Chain of D(3) dopamine receptor (P35462 whole entry): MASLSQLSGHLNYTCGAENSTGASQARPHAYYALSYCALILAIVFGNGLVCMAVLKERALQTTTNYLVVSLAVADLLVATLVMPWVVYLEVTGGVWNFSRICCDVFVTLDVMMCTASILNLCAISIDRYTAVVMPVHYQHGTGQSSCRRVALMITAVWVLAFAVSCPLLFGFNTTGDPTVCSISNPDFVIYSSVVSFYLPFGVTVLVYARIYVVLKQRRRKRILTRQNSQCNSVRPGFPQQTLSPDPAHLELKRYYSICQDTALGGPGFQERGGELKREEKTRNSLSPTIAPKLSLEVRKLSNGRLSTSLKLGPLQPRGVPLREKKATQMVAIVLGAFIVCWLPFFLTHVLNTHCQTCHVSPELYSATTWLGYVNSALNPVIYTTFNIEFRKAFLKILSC
# Cannabinoid receptor 1 [4] = target: T3, Cannabinoid receptor 1 (Homo sapiens, UniProt P21554); format: functional, cell-based
# T3 sequence (P21554 whole entry): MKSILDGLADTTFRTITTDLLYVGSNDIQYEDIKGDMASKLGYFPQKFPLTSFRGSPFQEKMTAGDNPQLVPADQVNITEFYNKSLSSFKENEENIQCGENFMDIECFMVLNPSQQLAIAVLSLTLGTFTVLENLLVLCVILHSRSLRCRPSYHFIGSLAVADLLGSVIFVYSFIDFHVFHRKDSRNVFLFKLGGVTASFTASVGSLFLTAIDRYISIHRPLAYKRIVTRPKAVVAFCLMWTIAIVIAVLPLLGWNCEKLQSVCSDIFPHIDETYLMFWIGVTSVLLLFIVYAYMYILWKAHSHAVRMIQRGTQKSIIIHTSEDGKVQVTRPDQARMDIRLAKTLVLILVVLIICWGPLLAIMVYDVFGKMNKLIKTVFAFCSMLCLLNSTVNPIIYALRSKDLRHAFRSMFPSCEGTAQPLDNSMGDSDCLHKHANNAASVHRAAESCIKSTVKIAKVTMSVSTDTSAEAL
# [5] = target: T4, Alpha-1A adrenergic receptor (Homo sapiens, UniProt P35348)
# T4 sequence (P35348 whole entry): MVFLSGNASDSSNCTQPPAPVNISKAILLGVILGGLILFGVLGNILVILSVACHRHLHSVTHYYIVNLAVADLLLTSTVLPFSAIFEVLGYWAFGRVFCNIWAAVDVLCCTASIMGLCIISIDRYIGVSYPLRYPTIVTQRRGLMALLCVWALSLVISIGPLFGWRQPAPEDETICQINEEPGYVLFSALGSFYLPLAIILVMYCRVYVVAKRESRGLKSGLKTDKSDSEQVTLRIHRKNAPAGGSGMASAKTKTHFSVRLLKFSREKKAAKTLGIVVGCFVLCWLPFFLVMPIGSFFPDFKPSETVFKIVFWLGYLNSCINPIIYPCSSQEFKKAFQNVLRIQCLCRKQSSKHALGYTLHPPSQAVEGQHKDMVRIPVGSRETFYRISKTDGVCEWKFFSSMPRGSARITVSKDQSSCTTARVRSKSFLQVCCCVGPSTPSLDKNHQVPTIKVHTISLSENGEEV
# Cannabinoid receptor 1 [6] = target: T3, Cannabinoid receptor 1
# [7] = target: 5-hydroxytryptamine receptor 2B (Homo sapiens, UniProt P41595); format: functional, cell-based
# Chain of 5-hydroxytryptamine receptor 2B (P41595 whole entry): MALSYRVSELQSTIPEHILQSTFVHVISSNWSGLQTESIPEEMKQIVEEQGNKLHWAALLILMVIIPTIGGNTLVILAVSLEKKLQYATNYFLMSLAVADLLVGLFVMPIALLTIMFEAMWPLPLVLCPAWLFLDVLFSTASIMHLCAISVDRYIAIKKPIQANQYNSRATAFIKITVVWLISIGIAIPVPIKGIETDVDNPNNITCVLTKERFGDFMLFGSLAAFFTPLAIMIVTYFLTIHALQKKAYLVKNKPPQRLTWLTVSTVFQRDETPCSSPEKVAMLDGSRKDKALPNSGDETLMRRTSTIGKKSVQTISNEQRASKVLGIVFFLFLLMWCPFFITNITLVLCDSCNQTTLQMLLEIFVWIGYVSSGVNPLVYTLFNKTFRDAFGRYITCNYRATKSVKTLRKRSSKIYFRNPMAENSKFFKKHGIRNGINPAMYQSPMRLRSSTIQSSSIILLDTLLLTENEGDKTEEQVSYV
# Mu-type opioid receptor = Mu-type opioid receptor (Homo sapiens, UniProt P35372)
# Chain of Mu-type opioid receptor (P35372 whole entry): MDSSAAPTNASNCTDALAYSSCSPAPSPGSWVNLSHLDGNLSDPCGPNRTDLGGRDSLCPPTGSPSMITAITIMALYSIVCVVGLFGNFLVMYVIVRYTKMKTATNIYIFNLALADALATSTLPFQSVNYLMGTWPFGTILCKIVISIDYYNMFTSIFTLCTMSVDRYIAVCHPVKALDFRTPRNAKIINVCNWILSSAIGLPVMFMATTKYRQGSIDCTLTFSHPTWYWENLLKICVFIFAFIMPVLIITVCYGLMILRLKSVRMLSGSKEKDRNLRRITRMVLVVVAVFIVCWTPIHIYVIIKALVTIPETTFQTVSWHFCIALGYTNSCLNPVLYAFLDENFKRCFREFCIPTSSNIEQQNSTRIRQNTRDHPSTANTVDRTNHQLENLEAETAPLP
# Melanocortin receptor 4 = Melanocortin receptor 4 (Homo sapiens, UniProt P32245)
# Chain of Melanocortin receptor 4 (P32245 whole entry): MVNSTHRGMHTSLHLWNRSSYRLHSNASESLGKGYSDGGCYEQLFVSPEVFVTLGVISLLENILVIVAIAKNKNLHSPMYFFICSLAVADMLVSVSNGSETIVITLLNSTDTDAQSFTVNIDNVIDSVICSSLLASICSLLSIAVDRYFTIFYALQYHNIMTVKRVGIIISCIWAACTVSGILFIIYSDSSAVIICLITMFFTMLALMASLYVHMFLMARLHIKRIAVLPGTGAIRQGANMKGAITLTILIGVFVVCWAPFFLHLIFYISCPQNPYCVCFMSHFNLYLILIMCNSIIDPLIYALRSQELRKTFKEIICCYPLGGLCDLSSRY
# Further: assay procedure not described here.
# Chain of Gamma-aminobutyric acid receptor subunit alpha-1 (P62813 whole entry): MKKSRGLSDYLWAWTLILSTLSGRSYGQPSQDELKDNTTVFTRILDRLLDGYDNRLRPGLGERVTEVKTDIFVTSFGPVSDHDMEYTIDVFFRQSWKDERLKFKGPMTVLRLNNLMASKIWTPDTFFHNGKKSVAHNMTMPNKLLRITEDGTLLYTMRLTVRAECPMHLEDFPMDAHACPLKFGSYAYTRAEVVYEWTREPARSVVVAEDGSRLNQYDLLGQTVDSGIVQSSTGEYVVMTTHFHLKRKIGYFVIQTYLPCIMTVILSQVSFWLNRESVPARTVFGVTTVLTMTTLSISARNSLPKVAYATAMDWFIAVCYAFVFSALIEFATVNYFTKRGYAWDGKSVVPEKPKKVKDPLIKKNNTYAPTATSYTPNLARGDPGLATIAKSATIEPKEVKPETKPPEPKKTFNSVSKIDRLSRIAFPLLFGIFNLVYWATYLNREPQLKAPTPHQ
SMILES,AC50 [1] [µM],AC50 [2] [µM],AC50 [3] [µM],AC50 (Androgen receptor) [µM],AC50 (D(3) dopamine receptor) [µM],AC50 (Cannabinoid receptor 1 [4]) [µM],AC50 [5],AC50 (Cannabinoid receptor 1 [6]) [µM],AC50 [7] [µM],AC50 (Mu-type opioid receptor),AC50 (Melanocortin receptor 4) [µM]
Cc1ccc2c(-c3ccccc3)nc(=O)n(C(C)C)c2c1 [PROQUAZONE],> 30,> 30,> 30,15,> 30,> 30,,,,,
CC(=O)OCC(=O)[C@@]1(O)CC[C@H]2[C@@H]3CCC4=CC(=O)CC[C@]4(C)C3=CC[C@@]21C [ANECORTAVE ACETATE],> 10,,> 10,,> 30,> 30,> 10 µM,> 10,> 10,> 30 µM,> 10
Nc1nc2c(c(=O)[nH]1)N(C=O)C(CNc1ccc(C(=O)N[C@@H](CCC(=O)O)C(=O)O)cc1)CN2 (stereo partly drawn) [LEUCOVORIN],> 30,> 30,> 30,> 30,> 30,> 30,,,> 30,,
CC(C)OC(=O)C(C(=O)OC(C)C)=C1SC=CS1 [MALOTILATE],> 30,,> 30,> 30,> 30,> 30,,,> 30,,
C=CC(N)CCC(=O)O (stereo not drawn) [VIGABATRIN],> 10,,> 10,,> 30,> 30,> 10 µM,> 10,> 10,> 30 µM,> 10
CCCCCCOC(=O)CCC(=O)CN [HEXAMINOLEVULINATE],> 30,> 30,> 30,> 30,> 30,> 30,,,> 30,,
O=C(O)c1ccccc1Nc1cccc(C(F)(F)F)c1 [FLUFENAMIC ACID],> 10,> 30,> 30,,3.5,> 30,1 µM,> 10,> 30,> 30 µM,> 30
CCCC[C@H](C)C[C@H](O)/C=C/[C@H]1[C@H](O)CC(=O)[C@@H]1CCCC/C=C/C(=O)O [LIMAPROST],> 30,> 30,> 30,> 30,> 30,> 30,,,> 30,,
N#Cc1ccccc1-c1cc(-c2ccccn2)cn(-c2ccccc2)c1=O,> 30,> 30,> 30,> 30,> 30,> 30,,,> 30,,
CCOC(=O)Nc1ccc2c(c1)N(C(=O)CCN1CCOCC1)c1ccccc1S2 [MORICIZINE],> 30,> 30,> 30,> 30,> 30,> 30,,,> 30,,
CCCCC1(CC)C(=O)NC(=O)NC1=O [BUTETHAL],,> 30,> 30,> 30,> 30,> 30,,,> 30,,
CCC(C)(Oc1ccc(C2(c3ccc(OC(C)(CC)C(=O)O)cc3)CCCCC2)cc1)C(=O)O (stereo not drawn) [CLINOFIBRATE],> 30,,> 30,> 30,> 30,> 30,,,> 30,,
Cc1ccc(NC(=O)C2(c3ccc4c(c3)OC(F)(F)O4)CC2)nc1-c1cccc(C(=O)O)c1 [LUMACAFTOR],> 30,> 30,> 30,> 30,> 30,> 30,,,> 30,,
Cc1cccc(N(C)C(=S)Oc2ccc3ccccc3c2)c1 [TOLNAFTATE],> 10,,> 10,,> 30,,> 30 µM,> 10,> 10,> 30 µM,> 10
CCN(CC)CC(=O)Oc1ccc(NC(C)=O)cc1 [PROPACETAMOL],> 30,,> 30,> 30,> 30,> 30,,,> 30,,
NC(=O)CCC/N=C(\c1ccc(Cl)cc1)c1cc(F)ccc1O [PROGABIDE],> 10,> 30,> 10,,> 30,,> 10 µM,> 10,> 10,> 30 µM,> 10
C[C@@H]1C[C@H]2[C@@H]3C[C@H](F)C4=CC(=O)C=C[C@]4(C)[C@@]3(F)[C@@H](O)C[C@]2(C)[C@H]1C(=O)CO [DIFLUCORTOLONE],,,,2.6,> 30,,,,18,,
COc1cc(OC)c(C(=O)CCCN2CCCC2)c(OC)c1 [BUFLOMEDIL],> 30,,> 30,> 30,> 30,> 30,,,> 30,,
CC1(C)C(C=C(Cl)Cl)C1C(=O)OCc1cccc(Oc2ccccc2)c1 (stereo not drawn) [PERMETHRIN],> 10,,> 10,,> 30,,> 10 µM,18.2,> 10,> 30 µM,> 10
CC(NCCc1ccc(O)cc1)C(O)c1ccc(O)cc1 (stereo not drawn) [RITODRINE],> 30,,> 30,,> 30,,10 µM and 1.54 µM,> 30,> 30,13 µM and 9.2 µM,> 10
CC1(C)C(/C=C/C=C/C=C/C=C2\N(CCCCS(=O)(=O)O)c3ccc4ccccc4c3C2(C)C)=[N+](CCCCS(=O)(=O)[O-])c2ccc3ccccc3c21 [INDOCYANINE GREEN ACID FORM],,> 30,> 30,> 30,8.7,,,,,,
CC(=O)Nc1c(I)c(C(=O)N[C@H]2C(O)O[C@H](CO)[C@@H](O)[C@@H]2O)c(I)c(N(C)C(C)=O)c1I (stereo partly drawn) [METRIZAMIDE],> 30,,> 10,,> 30,> 30,> 10 µM,> 10,> 10,> 30 µM,> 10
Cc1cc2nc3c(=O)[nH]c(=O)nc-3n(C[C@H](O)[C@H](O)[C@H](O)COP(=O)(O)O)c2cc1C [RIBOFLAVIN 5'-PHOSPHATE],> 30,2.9,,> 30,> 30,,,,,,
C=C[C@@]1(C)CC(=O)[C@]2(O)[C@@]3(C)[C@@H](O)CCC(C)(C)[C@@H]3[C@H](OC(=O)CCN(C)C)[C@H](OC(C)=O)[C@@]2(C)O1,> 30,,> 30,> 30,> 30,> 30,,,> 30,,
NS(=O)(=O)c1cc2c(cc1C(F)(F)F)NC(Cc1ccccc1)NS2(=O)=O (stereo not drawn) [BENDROFLUMETHIAZIDE],> 10,,> 10,,> 30,,> 10 µM,> 10,> 10,> 30 µM,> 10
